Earlier results as cited in patent publication US7261867B1 (Eastman Kodak Company, priority 2006, dated 2007).

What was measured:
Conditions in all cases: 0.5% concentration in polymethylmethacrylate bone cement
[1] = test system: Pseudomonas aeruginosa
[2] = test system: Staphylococcus aureus
[3] = test system: Escherichia coli

Measured: inhibition of bacterial growth

[Cl][Ag] [Silver chloride]
significantly inhibit: all assays above

O=S(=O)([O-])[O-].[Ag+].[Ag+] [silver sulphate]
significantly inhibit: all assays above

silver oxide
significantly inhibit: all assays above
